Source: patent US20060229299A1, “5ht2c Receptor antagonists in the treatment of schizophrenia” (priority 2003, published 2006)

Columns and labels:
[1] = test system: 5-HT2C receptor relative to 5-HT2A and D2 receptors; experiment: Relative 5-HT2C affinity (formula I, sum of 5-HT2C/5-HT2A and 5-HT2C/D2 affinity ratios); details: Table 2; sum of affinity ratios from data of Table 1
5-HT2C receptor [2] = target: T1, 5-HT2C receptor (Homo sapiens, UniProt P28335); details: Table 3; expressed as pKi or pKd values; known affinities; cited from earlier work
T1 sequence (P28335 33-458): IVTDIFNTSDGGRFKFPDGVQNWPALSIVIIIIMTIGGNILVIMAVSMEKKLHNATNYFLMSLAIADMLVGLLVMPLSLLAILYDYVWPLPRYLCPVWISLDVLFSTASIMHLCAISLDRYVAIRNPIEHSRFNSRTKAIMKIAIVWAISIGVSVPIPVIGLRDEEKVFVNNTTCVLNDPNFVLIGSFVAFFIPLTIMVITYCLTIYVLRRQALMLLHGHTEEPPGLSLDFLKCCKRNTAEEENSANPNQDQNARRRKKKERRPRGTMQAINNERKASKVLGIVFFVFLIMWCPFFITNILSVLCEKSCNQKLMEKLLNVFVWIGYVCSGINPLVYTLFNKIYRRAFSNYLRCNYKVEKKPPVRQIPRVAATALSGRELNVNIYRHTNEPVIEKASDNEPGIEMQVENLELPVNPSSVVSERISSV

5-HT7 receptor = 5-HT7 receptor (UniProt P34969); details: ref 11 (human and for ritanserin data also rat); cited from earlier work
D3 dopamine receptor = D3 dopamine receptor (Homo sapiens, UniProt P35462); details: ref 11 (human and for ritanserin data also rat); cited from earlier work
α1-adrenoceptor = details: ref 11 (human and for ritanserin data also rat); cited from earlier work
[3] = target: D2-L (long form of D2 receptor) (Homo sapiens, UniProt P14416); details: ref 11 (human and for ritanserin data also rat); cited from earlier work
5-HT2C receptor [4] = target: 5-HT2C receptor (UniProt P28335); details: ref 11 (human and for ritanserin data also rat); cited from earlier work
[5] = target: mACh, muscarinic acetylcholine receptor; details: ref 11 (human and for ritanserin data also rat); cited from earlier work
sigma, σ receptor = details: ref 11 (human and for ritanserin data also rat); cited from earlier work
D2 receptor = D2 receptor (Homo sapiens, UniProt P14416); details: Table 3; expressed as pKi or pKd values; known affinities; cited from earlier work
α2-adrenoceptor = details: ref 11 (human and for ritanserin data also rat); cited from earlier work
D1 dopamine receptor = details: ref 11 (human and for ritanserin data also rat); cited from earlier work
H1 histamine receptor = H1 histamine receptor (Homo sapiens, UniProt P35367); details: ref 11 (human and for ritanserin data also rat); cited from earlier work

Sequence of D2 receptor (P14416 whole entry): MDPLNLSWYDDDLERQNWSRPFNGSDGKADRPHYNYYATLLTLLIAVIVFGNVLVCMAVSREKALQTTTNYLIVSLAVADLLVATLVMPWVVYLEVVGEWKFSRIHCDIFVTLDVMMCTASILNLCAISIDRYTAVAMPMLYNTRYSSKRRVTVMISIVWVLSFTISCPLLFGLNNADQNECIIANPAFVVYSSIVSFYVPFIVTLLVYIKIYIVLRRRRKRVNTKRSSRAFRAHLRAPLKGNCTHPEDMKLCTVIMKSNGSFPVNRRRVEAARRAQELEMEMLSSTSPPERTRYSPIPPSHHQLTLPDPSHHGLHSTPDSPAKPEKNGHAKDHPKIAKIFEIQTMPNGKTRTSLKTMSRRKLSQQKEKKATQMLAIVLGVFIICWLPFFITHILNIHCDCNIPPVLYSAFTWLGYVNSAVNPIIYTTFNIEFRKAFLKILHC

SMILES: Cc1nc2sccn2c(=O)c1CCN1CCC(=C(c2ccc(F)cc2)c2ccc(F)cc2)CC1 [Ritanserin]
- (2C/2A) + (2C/D2) [1]: 2.15
- 5-HT2C Affinity (5-HT2C receptor [2]): 9
- 5-HT7 affinity value (−logKi) (5-HT7 receptor): 7.8^11
- D3 affinity value (−logKi) (D3 dopamine receptor): 7.1^11
- α1 affinity value (−logKi) (α1-adrenoceptor): 7.5^11
- D2-L affinity value (−logKi) [3]: 7.4^11
- 5-HT2C affinity value (−logKi) (5-HT2C receptor [4]): 9.0^11
- mACh affinity value (−logKi) [5]: 5.4^11
- sigma affinity value (−logKi) (sigma, σ receptor): 6.1^11
- D2 Affinity (D2 receptor): 7.4
- α2 affinity value (−logKi) (α2-adrenoceptor): 7.3^11
- D1 affinity value (−logKi) (D1 dopamine receptor): 5.9^11
- H1 affinity value (−logKi) (H1 histamine receptor): 8.2^11
